Experiments:
[1] = test system: human mesothelial cells or human fibroblasts; assay: cell cultures under hypoxic conditions, production of inflammatory cytokines and growth factors; type: cell-based; conditions: human mesothelial cells or human fibroblasts cultured under hypoxic conditions, presence vs absence of dichloroacetic acid
Procedure: Similarly, cell cultures using human mesothelial cells or human fibroblasts are cultured under hypoxic conditions in the presence and absence of dichloroacetic acid. The production of inflammatory cytokines and growth factors is measured, and found to be reduced in the presence of dichloroacetic acid. These growth factors, such as IL-1 and TGF-β, are believed to be associated with adhesion development.

[2] = animal adhesion study, monitoring of serum alanine and lactate; type: in vivo, rat or rabbit; conditions: in the presence of dichloroacetic acid, intravenous injection or slow release
Procedure: An animal adhesion study to evaluate the effectiveness of the pharmaceutical compositions described previously is conducted using a standardized animal model, such as a model of cecal abrasion in the rat or an oravian bisection in the rabbit.
The animals undergo lesioning by a surgeon unaware of group assignment, with necropsy performed one to two weeks later as is standard for that particular animal model.
The animals are randomized in a placebo control group and a group using dichloroacetic acid. The treatment begins preoperatively, and continues for five days after surgery. Dichloroacetic acid is administered by intravenous injection, or by slow release from a delivery agent, and is left in the peritoneal cavity following surgery. The maintenance of adequate amounts of dichloroacetic acid can be monitored by the measurement of serum alanine and lactate, which is reduced in the presence of dichloroacetic acid. Necropsy is performed on the animals, and adhesions are scored. Studies are completed on a total of 30 animals in each group in at least three settings.

Structure (SMILES): O=C(O)C(Cl)Cl [dichloroacetic acid]
- production of inflammatory cytokines and growth factors (such as IL-1 and TGF-β) [1]: reduced
- serum alanine and lactate [2]: reduced

— patent US6518308B2, “Compositions for adhesion prevention” (priority 2000, dated 2003)
